Experimental data published in publication PMC7932537, “Quantitative profiling of protease specificity” (PLoS Computational Biology, 2021).

How the values were obtained:
[1] = system: MMP-2; test: Substrate phage display with NGS: relative probability (RP) of P3-P1' tetramer clusters; type: biochemical, human; details: MMP2;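 note: ratio of tetramer probability after protease selection to that in naive phage library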
[2] = biological target: T1, MMP-2 (Homo sapiens, UniProt P08253); test: K(obs) of individual phage substrates (set of 1369); type: biochemical; details: MMP2
T1 sequence (P08253 110-660): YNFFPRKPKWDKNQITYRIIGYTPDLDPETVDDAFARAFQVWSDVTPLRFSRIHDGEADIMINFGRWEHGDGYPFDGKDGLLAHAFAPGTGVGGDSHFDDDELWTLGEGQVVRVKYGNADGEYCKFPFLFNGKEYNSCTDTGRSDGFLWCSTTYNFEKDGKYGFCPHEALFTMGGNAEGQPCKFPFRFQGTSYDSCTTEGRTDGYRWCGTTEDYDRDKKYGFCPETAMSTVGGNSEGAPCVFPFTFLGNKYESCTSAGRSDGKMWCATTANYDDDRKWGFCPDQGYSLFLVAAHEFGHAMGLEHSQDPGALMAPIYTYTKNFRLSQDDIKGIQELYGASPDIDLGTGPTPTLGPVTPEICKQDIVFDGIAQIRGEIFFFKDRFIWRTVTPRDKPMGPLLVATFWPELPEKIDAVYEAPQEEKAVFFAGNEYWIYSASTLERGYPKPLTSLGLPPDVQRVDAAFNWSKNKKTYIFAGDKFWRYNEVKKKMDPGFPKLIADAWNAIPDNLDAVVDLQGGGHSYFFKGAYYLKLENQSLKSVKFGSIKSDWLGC

[3] = biological target: MMP-9 (Homo sapiens, UniProt P14780); test: as above; type: biochemical; details: MMP9
[4] = RP of the P3-P1' tetramer contained in the substrate
[5] = individual phage substrate of the set of 1369 peptides, cleavage position marked by '-'
[6] = individual phage substrate of the set of 1369 peptides, dash in the sequence marks the cleavage position
[7] = RP of the P3-P1' tetramer contained in the substrate (substrate phage display with NGS)
[8] = individual phage substrates, set of 1369 peptides, cleavage position marked by hyphen in sequence
[9] = individual phage substrates, set of 1369 peptides, hyphen in sequence marks cleavage position

Sequence of MMP-9 (P14780 94-707): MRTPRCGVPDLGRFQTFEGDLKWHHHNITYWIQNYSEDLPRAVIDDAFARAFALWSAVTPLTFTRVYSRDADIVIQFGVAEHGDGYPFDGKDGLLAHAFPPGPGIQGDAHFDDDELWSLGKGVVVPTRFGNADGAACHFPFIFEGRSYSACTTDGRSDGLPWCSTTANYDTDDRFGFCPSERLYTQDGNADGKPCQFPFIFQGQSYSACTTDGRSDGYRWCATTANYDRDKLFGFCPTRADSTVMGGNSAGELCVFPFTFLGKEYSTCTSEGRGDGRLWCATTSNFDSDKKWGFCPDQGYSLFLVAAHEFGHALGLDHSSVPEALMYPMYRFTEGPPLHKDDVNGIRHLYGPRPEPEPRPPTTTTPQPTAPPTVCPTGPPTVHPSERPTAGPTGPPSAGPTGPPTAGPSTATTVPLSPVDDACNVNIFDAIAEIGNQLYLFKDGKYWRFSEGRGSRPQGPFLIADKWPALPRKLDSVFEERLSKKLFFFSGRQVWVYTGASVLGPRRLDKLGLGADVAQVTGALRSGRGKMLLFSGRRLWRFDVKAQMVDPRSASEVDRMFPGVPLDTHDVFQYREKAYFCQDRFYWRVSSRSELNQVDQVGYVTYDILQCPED

Substance	Kobs [2, 5]	Kobs [3, 6]	Kobs [2, 8]	Kobs [3, 9]	relative probability (RP) [1, 4]	relative probability (RP) [1, 7]
SGAHG-ILSTA	2996.69 M⁻¹ s⁻¹	3536.02 M⁻¹ s⁻¹	–	–	8.881	–
GSPAS-LRTAS	12792.1 M⁻¹ s⁻¹	12792.1 M⁻¹ s⁻¹	–	–	36.4285	–
SGPRW-MKGTA	–	–	4205.91 M⁻¹ s⁻¹	7815.03 M⁻¹ s⁻¹	–	32.3694
SGISF-MSVTA	–	–	836.403 M⁻¹ s⁻¹	0 M⁻¹ s⁻¹	–	23.3965
PKWHG-LTASG	355.093 M⁻¹ s⁻¹	619.843 M⁻¹ s⁻¹	–	–	0.5588	–
VSSYW-LTASG	–	–	951.362 M⁻¹ s⁻¹	1981.53 M⁻¹ s⁻¹	–	0.9791
GIPYH-LATAS	1816.46 M⁻¹ s⁻¹	7015.91 M⁻¹ s⁻¹	–	–	27.2418	–
HAPLN-FTASG	12792.1 M⁻¹ s⁻¹	10866.7 M⁻¹ s⁻¹	–	–	28.3679	–
GSVWH-VRTAS	–	–	231.616 M⁻¹ s⁻¹	0 M⁻¹ s⁻¹	–	0
SGGSG-LRVLK	654.784 M⁻¹ s⁻¹	355.093 M⁻¹ s⁻¹	–	–	1.9698	–
VQQQG-LTASG	3741.87 M⁻¹ s⁻¹	231.616 M⁻¹ s⁻¹	–	–	6.401	–
VKPWA-LTASG	5667.28 M⁻¹ s⁻¹	10866.7 M⁻¹ s⁻¹	–	–	31.9211	–
GRLGN-LWTAS	5667.28 M⁻¹ s⁻¹	0 M⁻¹ s⁻¹	–	–	33.3542	–
GIVRY-LQTAS	4922.1 M⁻¹ s⁻¹	3438.54 M⁻¹ s⁻¹	–	–	18.3724	–
EQLSF-LTASG	–	–	12792.1 M⁻¹ s⁻¹	0 M⁻¹ s⁻¹	–	14.5333
IGPQF-LTASG	12792.1 M⁻¹ s⁻¹	12792.1 M⁻¹ s⁻¹	–	–	26.3159	–

Substance	Kobs [2, 5]	Kobs [3, 6]	Kobs [2, 8]	Kobs [3, 9]	relative probability (RP) [1, 4]	relative probability (RP) [1, 7]
SGPAA-LLGTA	8941.32 M⁻¹ s⁻¹	12792.1 M⁻¹ s⁻¹	–	–	35.8015	–
SLPTS-LTASG	–	–	8321.48 M⁻¹ s⁻¹	2097.28 M⁻¹ s⁻¹	–	28.926
HGLWS-LTASG	–	–	2097.28 M⁻¹ s⁻¹	1071.29 M⁻¹ s⁻¹	–	8.3838
SGAQM-LRGTA	–	–	4082.43 M⁻¹ s⁻¹	5461.43 M⁻¹ s⁻¹	–	8.608
GYIQS-LFTAS	–	–	5461.43 M⁻¹ s⁻¹	0 M⁻¹ s⁻¹	–	25.2682
WVMES-LTASG	1660.66 M⁻¹ s⁻¹	386.839 M⁻¹ s⁻¹	–	–	8.775	–
RRVLM-MTASG	–	–	171.876 M⁻¹ s⁻¹	1660.66 M⁻¹ s⁻¹	–	2.736
GSGAH-LQLST	171.876 M⁻¹ s⁻¹	292.668 M⁻¹ s⁻¹	–	–	8.464	–
SGPRM-LVLTA	4082.43 M⁻¹ s⁻¹	6688.74 M⁻¹ s⁻¹	–	–	30.5973	–
WHPVS-LTASG	12792.1 M⁻¹ s⁻¹	12792.1 M⁻¹ s⁻¹	–	–	32.502	–
NRFSN-LTASG	–	–	8941.32 M⁻¹ s⁻¹	0 M⁻¹ s⁻¹	–	24
TKMAW-LTASG	7015.91 M⁻¹ s⁻¹	1513.13 M⁻¹ s⁻¹	–	–	31.5866	–
TMGMN-MTASG	–	–	142.481 M⁻¹ s⁻¹	517.582 M⁻¹ s⁻¹	–	0
YSATN-LTASG	–	–	12792.1 M⁻¹ s⁻¹	484.315 M⁻¹ s⁻¹	–	16.0897
SGLGT-LSKTA	–	–	836.403 M⁻¹ s⁻¹	0 M⁻¹ s⁻¹	–	24.6198
VRWSW-LTASG	2038.8 M⁻¹ s⁻¹	0 M⁻¹ s⁻¹	–	–	7.878	–

More lines, main results first:

Kobs [2, 5]	Kobs [3, 6]	Kobs [2, 8]	Kobs [3, 9]	Substance	relative probability (RP) [1, 4]	relative probability (RP) [1, 7]
–	–	0 M⁻¹ s⁻¹	0 M⁻¹ s⁻¹	SGSMR-LVLTA	–	0
–	–	7015.91 M⁻¹ s⁻¹	9740.44 M⁻¹ s⁻¹	RFALN-LTASG	–	17.2813
3079.62 M⁻¹ s⁻¹	6688.74 M⁻¹ s⁻¹	–	–	KKWRG-LTASG	23.375	–
–	–	0 M⁻¹ s⁻¹	0 M⁻¹ s⁻¹	TKYAY-ITASG	–	1.709
3741.87 M⁻¹ s⁻¹	619.843 M⁻¹ s⁻¹	–	–	RLANA-LTASG	20.3526	–
–	–	0 M⁻¹ s⁻¹	0 M⁻¹ s⁻¹	GQVDY-LMTAS	–	1.426
12792.1 M⁻¹ s⁻¹	12792.1 M⁻¹ s⁻¹	–	–	ELVRS-LTASG	12.3051	–
5667.28 M⁻¹ s⁻¹	231.616 M⁻¹ s⁻¹	–	–	GWPNA-FLTAS	16.8865	–
–	–	12792.1 M⁻¹ s⁻¹	9740.44 M⁻¹ s⁻¹	VFVSN-LTASG	–	33.8801
3741.87 M⁻¹ s⁻¹	0 M⁻¹ s⁻¹	–	–	SGMAA-LKRTA	32.6562	–
2218.08 M⁻¹ s⁻¹	3079.62 M⁻¹ s⁻¹	–	–	SGPYP-LWKTA	30.8058	–
1327.88 M⁻¹ s⁻¹	0 M⁻¹ s⁻¹	–	–	TVTQN-LTASG	7.238	–
–	–	2097.28 M⁻¹ s⁻¹	912.511 M⁻¹ s⁻¹	GMARF-LSTAS	–	8.577
10866.7 M⁻¹ s⁻¹	9740.44 M⁻¹ s⁻¹	–	–	GVIRF-LRTAS	12.1004	–
–	–	142.481 M⁻¹ s⁻¹	142.481 M⁻¹ s⁻¹	GSGYS-LIALT	–	0.04707
–	–	1196.62 M⁻¹ s⁻¹	2218.08 M⁻¹ s⁻¹	VNARM-LTASG	–	2.9901
142.481 M⁻¹ s⁻¹	619.843 M⁻¹ s⁻¹	–	–	SGAMG-LFRTA	23.7576	–
–	–	7386.83 M⁻¹ s⁻¹	1513.13 M⁻¹ s⁻¹	EVARA-WTASG	–	17.4628
–	–	517.582 M⁻¹ s⁻¹	0 M⁻¹ s⁻¹	MNWES-LTASG	–	0.6249

Kobs [2, 5]	Kobs [3, 6]	Kobs [2, 8]	Kobs [3, 9]	Substance	relative probability (RP) [1, 4]	relative probability (RP) [1, 7]
0 M⁻¹ s⁻¹	0 M⁻¹ s⁻¹	–	–	PAYFP-LTASG	0.1432	–
12792.1 M⁻¹ s⁻¹	113.394 M⁻¹ s⁻¹	–	–	MSWSA-LTASG	25.8217	–
–	–	484.315 M⁻¹ s⁻¹	2761.81 M⁻¹ s⁻¹	SGVWG-IYVTA	–	3.01
12792.1 M⁻¹ s⁻¹	8321.48 M⁻¹ s⁻¹	–	–	DLPAG-LTASG	36.0156	–
–	–	2157.02 M⁻¹ s⁻¹	142.481 M⁻¹ s⁻¹	ELMLS-MTASG	–	5.234
5667.28 M⁻¹ s⁻¹	2545.25 M⁻¹ s⁻¹	–	–	SFPNP-LTASG	23.6266	–
–	–	12792.1 M⁻¹ s⁻¹	5667.28 M⁻¹ s⁻¹	GLPTA-LRTAS	–	32.8941
12792.1 M⁻¹ s⁻¹	355.093 M⁻¹ s⁻¹	–	–	YPFGS-LTASG	21.9152	–
12792.1 M⁻¹ s⁻¹	12792.1 M⁻¹ s⁻¹	–	–	SEPFG-LTASG	31.7131	–
5269.78 M⁻¹ s⁻¹	12792.1 M⁻¹ s⁻¹	–	–	GPVYN-LRTAS	19.1818	–
–	–	799.117 M⁻¹ s⁻¹	1711.63 M⁻¹ s⁻¹	NKVYA-WTASG	–	0.6193
–	–	0 M⁻¹ s⁻¹	231.616 M⁻¹ s⁻¹	EMSWG-LTASG	–	0.1389
1660.66 M⁻¹ s⁻¹	4613.14 M⁻¹ s⁻¹	–	–	SGARN-LLWTA	24.6947	–
–	–	3344.37 M⁻¹ s⁻¹	2409.72 M⁻¹ s⁻¹	GSVMN-LTASG	–	18.6016
3253.29 M⁻¹ s⁻¹	7815.03 M⁻¹ s⁻¹	–	–	YDVYN-LTASG	19.1818	–
84.609 M⁻¹ s⁻¹	0 M⁻¹ s⁻¹	–	–	DRQLS-LTASG	0.4979	–
12792.1 M⁻¹ s⁻¹	8941.32 M⁻¹ s⁻¹	–	–	LNPAF-LTASG	32.4224	–
12792.1 M⁻¹ s⁻¹	3964.21 M⁻¹ s⁻¹	–	–	SYALH-LTASG	14.6488	–
–	–	10866.7 M⁻¹ s⁻¹	27.918 M⁻¹ s⁻¹	RQLAH-ITASG	–	25.9365
